For assay [1], the system named is MCF-7 breast cancer cell line. Put plainly: MTT cell viability assay, MCF-7. It is filed as cell-based, human. The procedure:
(§1) All substances towards the A549, HepG2, MCF-7, and NHDF cell lines were evaluated by using the MTT approach. The collected data were utilized to compute the IC50 value and contrast it with the gold standard cisplatin anticancer medication.
(§2) Cellular viability or metabolic properties can be measured using the MTT assay, which is a powerful and credible method for anticancer properties. The anticancer efficacy of all test compounds was investigated by the MTT assay against A549, HepG2, MCF-7, and NHDF cell lines. As per the colorimetric approach, the IC50 findings of all test substances were evaluated as the % of cell viability/growth inhibition. […] Nevertheless, complex (1a) has the highest cytotoxic potential among others. The acquired findings were in the subsequent sequence as follows: (cisplatin) > (1a) > (2a) > (HL) (Figure 16 and Table 10). The cytotoxic effectiveness is dependent upon the DNA-binding modalities, the structure-activity relationship, as well as drug concentrations and incubation period exposure. […] As per Tweedy's chelation theory, charge equilibration happens as a result of coordination between the ligands and metal ions, which minimises the polarity of the metal ions and causes the capability of the test complexes to pass via the cell membrane lipid layer. Thus, it put off the synthesis of cell wall/protein/nucleic acids. Additionally, the results of DNA-binding tests using these complexes, including gel electrophoresis, UV-visible spectral titration, hydrodynamic, emission, and CV findings, were in good agreement with the findings of cytotoxicity. The expressions (46) and (47) were supported to measure the % of growth inhibition and cell viability. […]
(§3) A549, HepG2 MCF-7, and NHDF are represented as human lung cancer cell line, liver cancer cell line, breast cancer cell line, and normal human dermal fibroblasts cell line.(45) % Cytotoxiciy=1− Mean absorbance of Sample at 595 nm/Mean absorbance of Controlat 595 nm ×100, (46) Cellviability%=100−Cytotoxiciy%.
On the technique in general: Tetrazolium assays rely on reduction of a dye to a coloured formazan, in cell work by metabolically active cells.

Assay [2] concerns NHDF normal human dermal fibroblasts cell line. The assay is described as follows: MTT cell viability assay, NHDF. Particulars: 72 hours exposure, normal cells. It is filed as cell-based. As to the method: as §1, §2, §3
In assay [3] the test system is HepG2 liver cancer cell line. The assay is described as follows: MTT cell viability assay, HepG2. The class given is cell-based, human. The procedure: as §1, §2, §3
The test system of assay [4] is Aspergillus niger. Put plainly: Agar disc diffusion, strain H. The class given is cell-based. Also noted: (inhibition %): concentration or dose not given beside the values. The conditions noted are these: for diameter of the clear zone inhibition: control = 6 mm. The procedure: In-vitro antimicrobial properties were evaluated for all samples by the agar disc diffusion method towards different fungal and bacterial strains. Additionally, the reported inhibition zone values were comparatively analyzed with the standard antifungal drugs ketoconazole and amphotericin B as well as the standard antibiotic medications streptomycin and amikacin.
The current research has a curious focus on the in vitro antimicrobial properties of biological systems because these studies are crucial for developing effective antibacterial and antifungal medications. […] It can also be spelled out based on the chelation theory proposed by Overtone and Tweedy. Chelation theory points out that the partial exchanging of the positive charge of the metal center with donor moieties, and overlap of the ligand orbitals will reduce the greater degree of the metal ion's polarity, which ultimately rises the delocalization of π and d electrons over the full chelated ring system. By raising the size of the metal ion due to the retarding of polarization, chelation may also enhance the complexes' lipophilic characteristics, which further stimulate the lipid membrane permeability and break down the bacteria' enzymes responsible for cell wall formation, therefore slowing down the regular cell processes. By preventing the production of cell walls/proteins/DNA, including by obstructing folate metabolism and the cytoplasmic membrane, antimicrobial drugs frequently either fully eliminate microbes or only prevent their cell growth. Additionally, the samples' mode of action may be employed in disrupting the cell's respiration process by forming an H-bond during the morpholine-fused iminic group coordinated with the active metal center of its components, inhibiting proliferation of the cell. […] The difference in the antimicrobial efficacy of some of the compounds towards various microorganisms influences on the impermeability of the cells of the germs or the diversity of ribosomes of the microbes. The % of the inhibition of all substances is estimated from (45) (Table 9).
(A, B, C, D, and E are represented as gram negative bacteria species Escherichia coli, Salmonella enteric serovar typhi, Salmonella enteric serovar typhi, Pseudomonas aeruginosa, and Shigella flexneri, respectively. F & G are denoted as gram positive bacteria species Staphylococcus aureus and Bacillus cereus. H, I, and J are represented as fungal strains Aspergillus niger, Candida albicans, and Mucor indicus. Standard drugs for bacterial strains: Amikacin & Streptomycin Standard drugs for fungal strains: Ketoconazole and Amphotericin B. [Control (DMSO) = 6 mm].(44) Inhibition %=T–C/T×100, where T and C are represented as the diameter of microbial growth of the sample plates and the control plate (6 mm), respectively. Error limits ±2.5–5.0% (P ≤ 0.05).
On the technique in general: In agar diffusion tests the substance spreads into inoculated agar from a disc or well.

Assay [5] deals with A549 human lung cancer cell line. The assay is described as follows: MTT cell viability assay, A549. The class given is cell-based. The procedure: as §1, §2, §3

Each structure is given as a SMILES string.

On to `[Cu+2].[O-]c1ccccc1N=Cc1ccc(N2CCOCC2)cc1.[O-]c1ccccc1N=Cc1ccc(N2CCOCC2)cc1.c1ccc(-c2ccccn2)nc1` [(1a), [Cu(L)2(bpy)]], for which the IC50 in assay [1] (72 hours exposure) worked out at 32.1 ± 1.6 µM; in assay [2] it was 73.6 ± 3.7 µM; in assay [3] (72 hours exposure), 33.1 ± 1.7 µM; in assay [5] (72 hours exposure) it was 30.8 ± 1.5 µM. The “(inhibition %)” value in assay [4] is 45%. The “diameter of the clear zone inhibition” value in assay [4] is 11 mm.

With `[O-]c1ccccc1N=Cc1ccc(N2CCOCC2)cc1.[O-]c1ccccc1N=Cc1ccc(N2CCOCC2)cc1.[Zn+2].c1ccc(-c2ccccn2)nc1` [(2a), [Zn(L)2(bpy)]], in assay [4], the “(inhibition %)” value is recorded as 33% and the “diameter of the clear zone inhibition” value amounted to 09 mm.

`Oc1ccccc1N=Cc1ccc(N2CCOCC2)cc1` [(HL), 2-(4-morpholinobenzylideneamino)phenol]: the IC50 in assay [1] (Homo sapiens, MCF7, 72 hours exposure) is 105 ± 5.3 µM; in assay [2] (Homo sapiens, NHDF), 209 ± 10.4 µM; in assay [3] (Homo sapiens, HepG2, 72 hours exposure) it was 108 ± 5.4 µM; in assay [5] (Homo sapiens, A549, 72 hours exposure) it was 126 ± 6.3 µM. In addition, the “(inhibition %)” value in assay [4] came out at 40%. The “diameter of the clear zone inhibition” value in assay [4] is on record as 10 mm.

What is called IC50 is the concentration that gives 50% inhibition.

The values above are taken from article PMC9763021, “Comprehensive Assessment of Biomolecular Interactions of Morpholine-Based Mixed Ligand Cu(II) and Zn(II) Complexes of 2,2′-Bipyridine as Potential Anticancer and SARS-CoV-2 Agents: A Synergistic Experimental and Structure-Based Virtual Screening” (Bioinorganic Chemistry and Applications, 2022).
